Source: PubChem BioAssay (NCI)
Where “and” joins values, the source holds several entries; their conditions need not be identical. Identical values can stand only once.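 How tested: cells in 96-well plates exposed to compound for 48 hours at five concentrations. Abbreviation: GI50, concentration required for 50% inhibition of growth. Definition used: TGI = concentration required for complete inhibition of growth.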

Columns and labels:
Test in all cases: NCI tumour cell line growth inhibition, 48 h
OVCAR-5 ovarian = tested on: OVCAR-5 ovarian
NCI-H226 lung = tested on: NCI-H226 lung
SNB-75 CNS = tested on: SNB-75 CNS
HOP-92 NSCLC = tested on: HOP-92 NSCLC
U251 CNS = tested on: U251 CNS
RPMI-8226 leukemia = tested on: RPMI-8226 leukemia
SK-OV-3 ovarian = tested on: SK-OV-3 ovarian
M14 melanoma = tested on: M14 melanoma
SK-MEL-28 melanoma = tested on: SK-MEL-28 melanoma
MDA-MB-435 = tested on: MDA-MB-435

Structure (SMILES)	TGI (OVCAR-5 ovarian)	TGI (NCI-H226 lung)	TGI (SNB-75 CNS)	TGI (HOP-92 NSCLC)	TGI (U251 CNS)	TGI (RPMI-8226 leukemia) [µM]	TGI (SK-OV-3 ovarian)	TGI (M14 melanoma)	TGI (SK-MEL-28 melanoma)	GI50 (SK-MEL-28 melanoma) [µM]	GI50 (OVCAR-5 ovarian) [µM]	GI50 (NCI-H226 lung) [µM]	GI50 (SNB-75 CNS) [µM]	GI50 (HOP-92 NSCLC) [µM]	GI50 (U251 CNS) [µM]	GI50 (SK-OV-3 ovarian) [µM]	GI50 (M14 melanoma) [µM]	GI50 (MDA-MB-435) [µM]	TGI (MDA-MB-435) [µM]	GI50 (RPMI-8226 leukemia) [µM]
COC(=O)NC(=Nc1ccc(Oc2ccccc2)cc1NC=O)NC(=O)OC	> 100 µM	9.4 µM	> 100 µM	> 100 µM	1.21 µM	> 100	0.526 µM	> 100 µM	–	–	–	–	–	–	–	–	–	–	–	–
COc1ccc2c(c1)[n+]([O-])c(-c1ccc(Br)cc1)c(N)[n+]2[O-]	> 100 µM	> 100 µM	> 100 µM	> 100 µM	> 100 µM	–	> 100 µM	–	71.5 µM	–	–	–	–	–	–	–	–	–	–	–
C[C@]12CCC[C@H](O)[C@H]1C[C@H](CO)CC2	> 100 µM	> 100 µM	> 100 µM	> 100 µM	> 100 µM	> 100	> 100 µM	> 100 µM	> 100 µM	–	–	–	–	–	–	–	–	–	–	–
C/C=C(/CCC1NCCC2c3ccccc3NC12)[Si](C)(C)C (stereo not drawn)	20 µM	27.1 µM	21.4 µM	18.8 µM	25.4 µM	13.7	29.1 µM	11.8 µM	16.9 µM	–	–	–	–	–	–	–	–	–	–	–
NCCCCCCCCCCCn1c2c(c3ccccc3c1=O)C(=O)c1ccccc1-2	9.01 µM	54.3 µM	7.68 µM	7.05 µM	27.1 µM	–	34.5 µM	25.7 µM	4.82 µM	2.27	2.48	25.2	2.95	2.65	10.2	14.3	5.92	11	47.9	–
Cc1cc(Cl)ccc1NC(=O)CCCC(=O)C1CCC/C1=N\NC(=O)CC#N (stereo not drawn)	> 100 µM	> 100 µM	> 100 µM	> 100 µM	> 100 µM	> 100	> 100 µM	> 100 µM	> 100 µM	–	–	–	–	–	–	–	–	–	–	–
CO[C@]12C=C/C(=C(/C(=O)OCc3cccnc3)C(=O)CCCCCCCC[C@@]3(OC)C=C/C(=C(/C(=O)OCc4cccnc4)C(=O)CCCCCCCC1)O3)O2	15.5 µM	1.94 µM	4.05 µM	4.83 µM	8.58 µM	5.87	> 50 µM	3.79 µM	6.45 µM	1.37	1.99	1.02	1.18	1.86	1.66	2.43	1.2	–	–	1.09
C1COCCOCCOCCOCCOCCO1.[Cl][Sn]([Cl])([c]1ccccc1)[c]1ccccc1	31.6 µM	27.9 µM	19.6 µM	4.52 µM	6.81 µM	6.15	30.2 µM	12.4 µM	4.19 µM	2	17.8	11.5	5.19	2.26	2.65	16.6	4.25	–	–	2.02
CCOC(=O)C1=C(C)N(Cc2ccccc2)C(=O)C1CC#N (stereo not drawn)	–	–	> 100 µM	82.5 µM	> 100 µM	> 100	> 100 µM	> 100 µM	> 100 µM	–	–	–	–	–	–	–	–	–	–	–
COc1ccc(-c2nc(Nc3ccc(-c4nc5ccccc5[nH]4)cc3)nc(N3CCOCC3)n2)cc1	8.9 µM	8.6 µM	10.5 µM	3.74 µM	13.6 µM	6.54	5.53 µM	4.03 µM	4.28 µM	1.8	2.7	3.32	1.8	1.8	2.04	2.37	1.94	–	–	1.93
Cn1cc(-c2csc(-c3cn(CCCCN4CCCCC4)c4ccc(F)cc34)n2)c2cccnc21	11.3 µM	3.38 µM	–	27.8 µM	–	–	32.7 µM	–	–	–	2.86	1.68	–	4.81	–	16.2	–	1.52	2.84	–
O=c1c2c(c3ccccc3n1-c1ccccc1)NC(=S)NC2c1ccc(Cl)cc1 (stereo not drawn)	86.4 µM	37.4 µM	22.6 µM	19 µM	24.8 µM	–	65 µM	16.1 µM	32.5 µM	5.73	8.8	5.36	3.54	2.38	2.04	9.15	3.19	3.27	31	–
COc1cc2nc(-c3ccc(Cl)cc3)cc(OCCCN3CCCC3)c2cc1OC	13.7 µM	3.21 µM	5.09 µM	5.43 µM	14.5 µM	–	15.3 µM	1.51 µM	4.28 µM	1.48	1.03	0.898	1.73	0.85	1.79	2.42	0.402	2.72	10.8	–
CCOC(=O)c1ccc2c(c1)nc(/C=C/c1ccc(Cl)cc1)n2-c1cc(C(C)(C)C)[nH]n1	> 100 µM	27.2 µM	5.51 µM	–	13.2 µM	> 100	14.8 µM	> 100 µM	40.3 µM	3.51	18.5	3.63	1.9	–	3.28	4.28	20.9	10.5	> 100	8.14
NC(=O)c1ncn(CCN2CCN(C(=O)NCCCCCCNC(=O)N3CCN(CCn4cnc(C(N)=O)c4N)CC3)CC2)c1N	> 100 µM	> 100 µM	> 100 µM	> 100 µM	> 100 µM	> 100	> 100 µM	> 100 µM	> 100 µM	–	–	–	–	–	–	–	–	–	–	–
O=C(/C=C/c1ccccc1Cl)c1cccc2ccccc12	26.7 µM	> 100 µM	18.3 µM	34.9 µM	8.45 µM	91	34.8 µM	30.5 µM	28.1 µM	–	–	–	–	–	–	–	–	–	–	–
CCC(CCC(C)C1CCC2C3CC=C4CC(OC5OC(CO)C(O)C(O)C5O)CCC4(C)C3CCC12C)C(C)C (stereo not drawn)	> 100 µM	> 100 µM	–	> 100 µM	> 100 µM	> 100	> 100 µM	> 100 µM	> 100 µM	–	–	–	–	–	–	–	–	–	> 100	–

Structure (SMILES)	TGI (OVCAR-5 ovarian)	TGI (NCI-H226 lung)	TGI (SNB-75 CNS)	TGI (HOP-92 NSCLC)	TGI (U251 CNS)	TGI (RPMI-8226 leukemia) [µM]	TGI (SK-OV-3 ovarian)	TGI (M14 melanoma)	TGI (SK-MEL-28 melanoma)	GI50 (SK-MEL-28 melanoma) [µM]	GI50 (OVCAR-5 ovarian) [µM]	GI50 (NCI-H226 lung) [µM]	GI50 (SNB-75 CNS) [µM]	GI50 (HOP-92 NSCLC) [µM]	GI50 (U251 CNS) [µM]	GI50 (SK-OV-3 ovarian) [µM]	GI50 (M14 melanoma) [µM]	GI50 (MDA-MB-435) [µM]	TGI (MDA-MB-435) [µM]	GI50 (RPMI-8226 leukemia) [µM]
O=C(NNc1ccc(F)cc1)C1CCC(CNS(=O)(=O)c2ccc(Cl)c(Cl)c2)CC1 (stereo not drawn)	25.2 µM	> 50 µM	–	37.5 µM	> 50 µM	24.2	> 50 µM	> 50 µM	> 50 µM	> 50	7.7	15.6	–	7.35	10.3	28.9	7.49	2.01	35.1	3.36
CC(=O)[CH-]C(=O)c1ccccc1.CC(=O)[CH-]C(=O)c1ccccc1.CC[C@H](/C=C/C(C)[C@H]1CCC2[C@@H]3CC=C4C[C@@H]([O-])CC[C@]4(C)C3CC[C@@]21C)C(C)C.CC[O-].[Ti+4] (stereo partly drawn)	> 100 µM	> 100 µM	> 100 µM	> 100 µM	> 100 µM	> 100	> 100 µM	> 100 µM	> 100 µM	> 100	> 100	> 100	22.4	95.3	> 100	> 100	> 100	–	–	> 100
Cc1cc(=O)n2c3c(c4c(cc13)c(CO)cc(=O)n4C)OC2	72.3 µM	25.8 µM	70.5 µM	97.1 µM	> 100 µM	> 100	> 100 µM	> 100 µM	78.7 µM	–	–	–	–	–	–	–	–	–	–	–
COC(=O)NN1C(C)=C(C(=O)OC)C2(C#N)C(C(=O)OC)=C(C)N(NC(=O)OC)C12N (stereo not drawn)	> 100 µM	> 100 µM	–	> 100 µM	> 100 µM	> 100	> 100 µM	> 100 µM	> 100 µM	–	–	–	–	–	–	–	–	–	–	–
Cc1ccc(NC(=O)CC/C(CC(=O)C(C)(C)C)=N/NC(=O)C[N+](C)(C)C)cc1C	> 100 µM	> 100 µM	–	–	> 100 µM	–	> 100 µM	> 100 µM	> 100 µM	–	–	–	–	–	–	–	–	–	–	–
CCN(CC)CCOc1ccc(/C=C2\C[C@H]3[C@H]4CC=C5C[C@@H](O)CC[C@]5(C)[C@H]4CC[C@]3(C)[C@H]2O)cc1OC	18.6 µM	16 µM	–	–	17.3 µM	–	–	16.8 µM	> 50 µM	7.74	9.44	7.71	–	–	9.53	–	6.12	7.75	16.5	–
Clc1nc(Cl)c2c3c(sc2n1)CCCC3	> 100 µM	> 28.8 µM	> 100 µM	> 100 µM	> 100 µM	–	> 100 µM	> 100 µM	> 100 µM	6.97	> 100	2.54	> 100	3.88	> 20	> 100	4.49	3.65	> 100	–
C=C(C)C1CC=C(C)CC1 (stereo not drawn)	> 100 µM and 2420 µM	> 100 µM and 1570 µM	> 100 µM and 1710 µM	> 100 µM and 1530 µM	> 100 µM and 1480 µM	> 100	> 100 µM and 1900 µM	> 100 µM and 1700 µM	> 100 µM and 1680 µM	> 100	> 100	> 100	> 100	> 100	> 100	> 100	> 100	–	–	–
CC1(C)CCCC(C)(C2CCC3(C)C2C(O)CC2C4(C)CCC(O)C(C)(C)C4C(O)CC23C)O1 (stereo not drawn)	38.4 µM	40.1 µM	24.6 µM	30.6 µM	34.4 µM	–	32 µM	31.7 µM	28.2 µM	–	–	–	–	–	–	–	–	–	30.3	–
COC(=O)C1=Cc2cc(OC)c(OC)cc2[C@H](c2ccc(OC)c(OC)c2)C1C(=O)OC (stereo partly drawn)	> 100 µM	> 100 µM	> 100 µM	> 100 µM	> 100 µM	> 100	> 100 µM	> 100 µM	> 100 µM	–	–	–	–	–	–	–	–	–	–	–
COc1cccc(NC(=O)C(C)(C)C)c1SSc1c(NC(=O)C(C)(C)C)cccc1OC	53.2 µM	> 93.6 µM	> 74.4 µM	> 86 µM	35.1 µM	51	> 100 µM	32.5 µM	> 57.9 µM	–	–	–	–	–	–	–	–	–	–	–
NC1=NN(c2ccccc2)C(=O)C1/C(=N\NC(=O)c1cc2ccccc2cc1O)C(=O)Nc1cccc(C(F)(F)F)c1 (stereo not drawn)	68.4 µM	–	> 100 µM	> 100 µM	> 100 µM	> 100	–	> 100 µM	> 100 µM	–	–	–	–	–	–	–	–	–	–	–
Cn1c(=O)c2ccc(-c3ccc(Br)cc3)nc2n(C)c1=O	> 100 µM	> 100 µM	73.5 µM	> 100 µM	> 100 µM	> 100	> 100 µM	> 100 µM	> 100 µM	–	–	–	–	–	–	–	–	–	–	–
N#Cc1cc([N+](=O)[O-])ccc1NC(=O)C(F)(F)F	> 100 µM	> 100 µM	> 95.9 µM	> 100 µM	> 100 µM	> 66.9	> 100 µM	> 100 µM	> 100 µM	–	–	–	–	–	–	–	–	–	–	–
COC(=O)C[CH2][Ge]([CH3])([CH3])[S]c1ccccc1	> 100 µM	> 100 µM	> 100 µM	92.8 µM	44.1 µM	58.1	67.8 µM	> 100 µM	> 100 µM	36	29.5	27.4	31.4	17.7	17.7	23.5	36.5	–	–	22.4
CSc1nc2c(nc(N)n2C2OC(COC(C)=O)C(OC(C)=O)C(OC(C)=O)C2OC(C)=O)c(=O)n1C (stereo not drawn)	> 100 µM	> 100 µM	> 100 µM	> 100 µM	> 100 µM	> 100	> 100 µM	> 100 µM	–	–	–	–	–	–	–	–	–	–	–	–
CC(=O)[CH-]C(=O)c1ccccc1.CC(=O)[CH-]C(=O)c1ccccc1.CC1(C)OCC(C2OC3OC(C)(C)OC3C2[O-])O1.CC1(C)OCC(C2OC3OC(C)(C)OC3C2[O-])O1.[Ti+4] (stereo not drawn)	29 µM	–	28.5 µM	22.8 µM	–	–	50.3 µM	37.6 µM	29.9 µM	14	12.3	–	11	6.84	–	14.9	16.1	–	–	–
